Values quoted from earlier work, collected in patent publication US4256727A, “Synthesis and use of diagnostic radio-pharmaceuticals comprising radioactive isotopes of bromine with dyes” (The University of Kentucky Research Foundation, priority 1978, dated 1981).

Assays:
[1] = rate at which the drug is cleared from the blood after injection
[2] = formulated with propylene glycol and stored at refrigerated temperatures

stability of the product [2] | SMILES | half life of clearance from the blood [1] [min]
stable | O=C1OC2(c3cc(I)c(O)c(I)c3Oc3c2cc(I)c(O)c3I)c2c(Cl)c(Cl)c(Cl)c(Cl)c21 [Rose Bengal] | 8 to 10
– | O=S1(=O)OC(c2cc(Br)c(O)c(Br)c2)(c2cc(Br)c(O)c(Br)c2)c2ccccc21 [bromphenol blue, 4,4'-(3H-2,1,-benzoxathiol-3-ylidene)bis[2,6-dibromophenol]S,S,-dioxide] | 1.5
